Results on two compounds are retold here after paper PMC11489250, “Optimized methods for measuring competitive binding of chemical substances to thyroid hormone distributor proteins transthyretin and thyroxine binding globulin” (Archives of Toxicology, 2024).

Test [1] concerns the target T1, Human TTR (Homo sapiens, UniProt P02766).
T1 construct: Transthyretin (prealbumin, TTR) >95% from human plasma; purchased Sigma Aldrich (Zwijndrecht, The Netherlands); host or cells: human plasma
The test can be described thus: Optimized competitive TTR-binding assay with FITC-T4 (fluorescence intensity readout). The settings on record: for T4EQ concentration (TTR binding): T4EQi = highest human blood concentration x T4-REPi; for Contribution to T4EQ concentration (TTR binding): mixture of highest human blood concentrations of five model compounds; for IC20: read-out: TTR IC20. On the procedure: All TTR-binding experiments were performed in black 96-well polystyrene nonbinding plates. Experimental wells and background wells were prepared in triplicate per plate. […] Fluorescence intensity (FI) was measured at λex = 485 ± 20 nm and λem = 528 ± 20 nm (CLARIOstar Plus microplate reader, BMG LABTECH).
To test the effect of the change in temperature and incubation time, a saturation experiment (N = 3, n = 3) was performed in Tris–HCl buffer (0.1 M Tris (Thermo Scientific, Rockford, USA), 0.1 M NaCl (Merck KGaA, Darmstadt, Germany), 1 mM EDTA (VWR International, B.V. Amsterdam, The Netherlands); pH 8.0). […] Two 96-well plates were prepared at the same time. After shaking for 5 min on a plate shaker, one prepared plate was incubated on ice (at 4 °C) and another plate was incubated at room temperature (22 °C). For both plates the fluorescence was measured at different time points: 5 min, 15 min, 60 min and 120 min.
First, 48 µL Tris–HCl buffer (pH 8.0) was pipetted to the wells, followed by 2 µL of the compound (in DMSO). […] Final solvent (DMSO) concentrations in all conditions amounted to 1%. All plates were shaken for 5 min on a plate shaker, followed by an incubation for 15 min at room temperature. The standard operation procedure (SOP) is provided in Supplementary Information file (Section 3).
Calculations of the ICX, Kd and Ki values of TTR-binding assays are described in the Supplementary Information file (Section 3).
3.7.5 The competitive TTR binding screening assay
3.7.8 Processing data to determine IC50 and calculate Ki value

Test [2] has as its target TTR. On the set-up: method as in Ren et al. [2016]. The settings on record: ref Ren et al. [2016]; read-out: TTR literature Ki; cited from earlier work.
The target of test [3] is T2, thyroxine-binding globulin (TBG) (Homo sapiens, UniProt P05543).
T2 construct: purchased Bio-rad Laboratories, Inc. (Veenendaal, The Netherlands)
T2 sequence (P05543 21-415): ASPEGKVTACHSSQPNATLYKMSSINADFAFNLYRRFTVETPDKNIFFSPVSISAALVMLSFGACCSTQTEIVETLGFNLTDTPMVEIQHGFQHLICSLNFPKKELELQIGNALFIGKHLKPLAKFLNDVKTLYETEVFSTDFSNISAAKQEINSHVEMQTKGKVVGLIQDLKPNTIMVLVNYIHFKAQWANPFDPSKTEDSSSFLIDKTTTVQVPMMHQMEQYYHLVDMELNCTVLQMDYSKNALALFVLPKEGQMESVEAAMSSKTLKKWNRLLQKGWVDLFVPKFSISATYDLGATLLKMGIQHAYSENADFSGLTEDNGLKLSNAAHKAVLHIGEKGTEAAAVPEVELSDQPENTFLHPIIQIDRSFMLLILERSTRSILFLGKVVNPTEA
The test can be described thus: Competitive TBG-binding assay with FITC-T4 (fluorescence polarization readout). On the procedure: Prepared plates were first shaken for 5 min and then incubated for 15 min at room temperature before being analysed by the microplate reader at FP mode (CLARIOstar Plus, BMG LABTECH).
Accordingly, dilution series of all compounds were prepared in DMSO. First, 24 µL Tris–HCl buffer was pipetted to the wells, followed by 1 µL of the compound stock solution. […] Solvent (DMSO) concentrations in all conditions were 1%. The plates were shaken for 5 min on a plate shaker, followed by an incubation for 15 min at room temperature.
The adjusted polarization was set to a reference value of 35 mP. The adjustment gain values ranged from 1900 to 2200. The plate layout of TBG-binding assay is provided in Supplementary Information file (Section 4).
For the competitive TBG-binding experiments, concentration–response curves were fitted:2 r=rmin+rmax-rmin/1+IC50/X^HillSlope with rmin and rmax being the minimum and maximum anisotropy values, respectively. X is the concentration of added competitor. Equations that were used for the calculation of the ICX and Ki values in the TTR-binding assays (Supplementary Information, Section 3) were also used to determine the ICX and Ki values in TBG-binding assays without any changes, respectively. The single Kd, IC20, IC50 and Ki were determined based on replicates (n) in each experiment, and then the average and confidence intervals were determined based on the Kd, IC20, IC50 and Ki values from sperate experiments (N).
Alternatively, another approach to determine ICX, Kd and Ki values based on a theoretical model of ligand–protein binding biochemistry was taken as described in detail in the Supplementary Information file (Section 5). For this approach, R was used to fit the model to the data. The results obtained from the two approaches were compared in Section 3.4.
S5.2 Ki and IC50 estimation
(Polarisation of emitted light reports the rotation of a fluorescent probe.)

For test [4], the target named is T1, Human TTR. The settings on record: FITC-T4 110 nM, human TTR 30 nM, 4 °C, 2 h; ref Hamers et al. [2020]; read-out: TTR literature Ki; cited from earlier work.
Test [5] concerns the target TTR. The settings on record: calculated by Ki = 1/binding constant; ref Cao et al. [2011]; read-out: TTR literature Ki; cited from earlier work.
Another test has as its system Recombinant TTR. On the set-up: method as in Marchesini et al. [2006]. The settings on record: highest concentration tested 10 µM; ref Marchesini et al. [2006]; cited from earlier work.
The target in test [6] is TBG. The settings on record: calculated by Ki = 1/binding constant; ref Cao et al. [2011]; read-out: TBG literature Ki; cited from earlier work.
The subject of test [7] is TBG. On the set-up: method as in Marchesini et al. [2006]. The settings on record: highest concentration tested 10 µM; ref Marchesini et al. [2006]; cited from earlier work.

Read-outs that look alike come from different tables or passages of the source.

For the compound `O=C(O)C(F)(F)C(F)(F)C(F)(F)C(F)(F)C(F)(F)C(F)(F)C(F)(F)F` [PFOA, perfluorooctanoic acid], the “T4EQ concentration (TTR binding)” value at Human TTR [1] is listed as 1.26 nM. In addition, the IC50 on Human TTR [1] (TTR IC50, 110 nM FITC-T4, 30 nM TTR, RT, 15 min, average [95% CI]) was determined as 763 nM; at Human TTR [1] (TTR IC50 [95% CI], 55 nM FITC-T4, 30 nM TTR, RT (5 min)), 500 nM; on Human TTR [1] (TTR IC50 [95% CI], 55 nM FITC-T4, 30 nM TTR, RT (15 min)), 496 nM; at Human TTR [1] (TTR IC50 [95% CI], 55 nM FITC-T4, 30 nM TTR, RT (60 min)), 459 nM; on Human TTR [1] (TTR IC50 [95% CI], 55 nM FITC-T4, 30 nM TTR, RT (120 min)) it was 460 nM; on Human TTR [1] (TTR IC50 [95% CI], 55 nM FITC-T4, 30 nM TTR, on ice (120 min)), 461 nM. Further, the Ki is 268 nM on Human TTR [1] (TTR Ki [95% CI], 55 nM FITC-T4, 30 nM TTR, RT (5 min)); 280 nM on Human TTR [1] (TTR Ki [95% CI], 55 nM FITC-T4, 30 nM TTR, RT (15 min)); 304 nM on Human TTR [1] (TTR Ki [95% CI], 55 nM FITC-T4, 30 nM TTR, RT (60 min)); 353 nM on Human TTR [1] (TTR Ki [95% CI], 55 nM FITC-T4, 30 nM TTR, on ice (120 min)); 568 nM on Human TTR [1] (TTR Ki, 110 nM FITC-T4, 30 nM TTR, RT, 15 min, derived from IC20, average [95% CI]); 60 nM on TTR [2]. The inhibition constant Ki on Human TTR [4] was 1100 nM. Moreover, at Human TTR [1], the “Contribution to T4EQ concentration (TTR binding)” value is listed as 6.6%. Further, the IC20 on Human TTR [1] came out at 267 nM. In addition, the “inhibition of the FITC-T4 binding to TBG (in words)” value in test [3] (5 nM FITC-T4, 10 nM TBG, RT) was “No (or only limited) inhibition”.
Turning to `CC(C)(c1ccc(O)cc1)c1ccc(O)cc1` [BPA, bisphenol-A], the Ki on TTR [5] is 3230 nM; on TBG [6] it was 1700 nM; on Human TTR [1] (110 nM FITC-T4, 30 nM TTR, RT, 15 min, derived from IC20, average [95% CI], read-out: TTR Ki) it was 32100 nM; in test [3] (5 nM FITC-T4, 10 nM TBG, RT, 15 min, derived from IC20, descriptive model (Graphpad), average [95% CI], read-out: TBG Ki), 16800 nM; in test [3] (5 nM FITC-T4, 10 nM TBG, RT, theoretical model in R, average [95% CI], read-out: TBG Ki values, theoretical model) it was 18400 nM. For the same compound, the “competitive binding to TTR (in words)” value in the test on Recombinant TTR is “no competitive binding”. Also, the IC20 on Human TTR [1] (110 nM FITC-T4, 30 nM TTR, RT, 15 min, average [95% CI]) is 14700 nM; in test [3] (5 nM FITC-T4, 10 nM TBG, RT, 15 min, descriptive model (Graphpad), average [95% CI], read-out: TBG IC20), 32600 nM; in test [3] (5 nM FITC-T4, 10 nM TBG, RT, theoretical model in R, average [95% CI], read-out: TBG IC20, theoretical model), 35700 nM. Also, the IC50 at Human TTR [1] (110 nM FITC-T4, 30 nM TTR, RT, 15 min, average [95% CI], read-out: TTR IC50) was determined as 63100 nM; in test [3] (5 nM FITC-T4, 10 nM TBG, RT, 15 min, descriptive model (Graphpad), average [95% CI]) it was 172000 nM. Moreover, the “Relative potency compared to T4 (T4-REP), TTR-binding assay” value at Human TTR [1] (T4-REPi = IC20(T4)/IC20(i)) was found to be 0.002. Besides, the “T4EQ concentration (TTR binding)” value on Human TTR [1] is 0.16 nM. The “Contribution to T4EQ concentration (TTR binding)” value at Human TTR [1] was 0.8%. Moreover, the “competitive binding to TBG (in words)” value in the test with TBG [7] is given as “no competitive binding”. Moreover, in test [3] (T4-REPi = IC20(T4)/IC20(i)), the “Relative potency compared to T4 (T4-REP), TBG-binding assay” value amounted to 0.0003. Moreover, the “T4EQ concentration (TBG binding)” value in test [3] (T4EQi = highest human blood concentration x T4-REPi) worked out at 0.023 nM. Moreover, in test [3] (mixture of highest human blood concentrations of TBBPA, triclosan and BPA), the “Contribution to T4EQ concentration (TBG binding)” value worked out at 1.1%.

As a reminder, the IC50 is the concentration needed to halve the response being measured. In general, Ki refers to a dissociation constant, usually derived from enzyme kinetics or from competition with a known ligand. In general, IC20 refers to the concentration at which the effect reaches the 20% level.
